In patent US8334253B2, “Cosmetic and dermatological formulations of MNTF peptides” (Dermacare Neuroscience Institute, priority 2008, dated 2012):

System: hyaluronic acid levels in adult human dermal fibroblast (aHDF) conditioned media
Test: Hyaluronic acid in fibroblast-conditioned medium (HA-ELISA)
Format: cell-based
Settings: positive control, 5 ng/ml, 96 h
From the text: Hyaluronic acid (hyaluronan, HA), a naturally occurring carbohydrate polymer is a key component of connective, epithelial and neural tissues. HA participates in hydrodynamics, movement and proliferation of cells. This test was designed to determine whether a sample of palmitylated and non-palmitylated MNTF hexapeptide has an effect on hyaluronic acid levels in the adult human dermal fibroblast (aHDF) conditioned media.
Adult HDF (facial, passage 2, Cell Applications, San Diego, Calif. cat.#106-05A lot#1392) were plated in high glucose phosphate-free DMEM supplemented with 5% cosmic serum from Hyclone, Utah) at 6,000 cells per well and test materials were added the following day. Test materials were: Pal-Hexapeptide (palmitylated SEQ ID NO:2 as a lyophilized powder labeled APC 341055, lot V08150A1, received from DermaCare Neuroscience Institute), type I sterile water (negative control) and basic fibroblast growth factor (bFGF, positive control). Pal-Hexapeptide was dissolved in water at 20 mg/ml. Final concentrations tested were: 400, 200, 100, 50 and 25 ug/ml for DNP and 5 ng/ml for bFGF (plate 507). After 96 h, cell culture conditioned media were collected and 100 ul aliquotes were used for the HA assay. HA assay was performed using Hyaluronan Enzyme-Linked Immunosorbent Assay Kit (HA-ELISA, cat. #K-1200) from Echelon (Salt Lake City, Utah). The HA output was measured by following the generation of a chromophoric reaction product in 96 well plate, with the use of a BioRad microplate reader at 410 nm and the effect of the test materials was determined using the formula: Absorbance 410 (sample)/Absorbance 410 (Zero HA)×100.
Adult HDF (facial, passage 2, Cell Applications, San Diego, Calif. cat.#106-05A lot#1392) were plated in high glucose phosphate-free DMEM supplemented with 5% cosmic serum from Hyclone, Utah) at 6,000 cells per well and test materials were added the following day. Test materials were: hexapeptide (SEQ ID NO:2 (non-palmitylated), lyophilized powder lot #D294, received from DermaCare Neuroscience Institute), type I sterile water (negative control) and basic fibroblast growth factor (bFGF, positive control). Pal-Hexapeptide was dissolved in water at 20 mg/ml. Final concentrations tested were: 2000, 1000, 500 and 250 ug/ml for hexapeptide and 5 ng/ml for bFGF (plate 507). After 96 h, cell culture conditioned media were collected and 100 ul aliquotes were used for the HA assay. HA assay was performed using Hyaluronan Enzyme-Linked Immunosorbent Assay Kit (HA-ELISA, cat. #K-1200) from Echelon (Salt Lake City, Utah). The HA output was measured by following the generation of a chromophoric reaction product in 96 well plate, with the use of a BioRad microplate reader at 410 nm and the effect of the test materials was determined using the formula: Absorbance 410 (sample)/Absorbance 410 (Zero HA)×100.

basic fibroblast growth factor [bFGF, reference compound]
stimulation of hyaluronic acid in the fibroblast-conditioned medium: moderately stimulatory activity
